Entries after “also recorded” stand apart in the source; their conditions may differ.
Columns and labels:
HUVEC cells = details: cited from earlier work
[1] = tested on: human colon carcinoma cell lines; details: panel of 7 human colon carcinoma cell lines; cited from earlier work
hESCs = assay: Marker expression in hESCs maintained in mTeSR1 media with GANT-61; format: cell-based, human; details: 5 μM and 20 μM GANT-61, 6 or 12 days
Method: H1 (WA01), a well characterized human embryonic stem cell line,^33 was purchased from WiCell (Madison, WI, www.wicell.org/home/stem-cells/catalog-of-stem-cell-lines/wa01.cmsx). The cells were maintained on Matrigel-coated culture dishes in mTeSR1 medium (STEMCELL Technologies) or StemMACS iPS-Brew XF (Miltenyi Biotec).
(§1) High-Capacity RNA-to-cDNA kit (Applied Biosystems) was used to reverse transcribe the isolated RNA. Each reaction tube included up to 2 μg of RNA. The reverse transcription reaction was performed according to manufacturer instructions via the MBS Satellite (0.2 G) Thermal Cycler (ThermoFisher Scientific). The qPCR reaction mix was prepared by adding 12 ng of cDNA from each sample to the PowerUp SYBR Green Master Mix (2×) (Applied Biosystems). qPCR was performed (Standard Cycling Mode, primer Tm<60° C.) via the 7500 Fast Real-Time PCR system [Applied Biosystems]. The 7500 v2.3 software was used for data collection and gene expression comparisons (2^−ΔΔCT method).
Next, the effect of GANT-61 on GLI1 and SHH pathway members PTCH1 and SMO expression and on pluripotency marker expression in hESCs was evaluated.

Rh41 cells = assay: rt-PCR of GLI1 target gene Bcl-2 in GANT-61 treated Rh41 cells; format: cell-based
Method: as §1
(§2) First, to validate the effect of GANT-61 inhibition on GLI1 target genes, rt-PCR on GANT-61 treated Rh18 and Rh41 cells was performed. These cell lines express GLI1.

H1 hESCs = assay: Spontaneous differentiation of WT H1 hESC in embryoid bodies in the presence of GANT-61, real time PCR; format: cell-based, human
Method: WT H1 hESC single cells were plated onto non-attachment plates and maintained in ESC media without FGF-β in the presence of FBS. Experimental group was cultured in the presence of GANT-61 (Tocris Biosciences, Cat. No. 3191) at concentration of 5 μM, while the control group was cultured in the presence of 5 μM DMSO. Media containing GANT-61 was replaced every other day. Embryoid bodies were collected at days 10 and 20. Markers for the three embryologic lineages were analyzed by real time PCR.
as §1

cancer cells = details: cited from earlier work
GLI1 = biological target: T1, GLI1 (Homo sapiens, UniProt P08151); details: between zinc fingers 2 and 3 at sites E119 and E167; cited from earlier work
T1 sequence (P08151 1-1106): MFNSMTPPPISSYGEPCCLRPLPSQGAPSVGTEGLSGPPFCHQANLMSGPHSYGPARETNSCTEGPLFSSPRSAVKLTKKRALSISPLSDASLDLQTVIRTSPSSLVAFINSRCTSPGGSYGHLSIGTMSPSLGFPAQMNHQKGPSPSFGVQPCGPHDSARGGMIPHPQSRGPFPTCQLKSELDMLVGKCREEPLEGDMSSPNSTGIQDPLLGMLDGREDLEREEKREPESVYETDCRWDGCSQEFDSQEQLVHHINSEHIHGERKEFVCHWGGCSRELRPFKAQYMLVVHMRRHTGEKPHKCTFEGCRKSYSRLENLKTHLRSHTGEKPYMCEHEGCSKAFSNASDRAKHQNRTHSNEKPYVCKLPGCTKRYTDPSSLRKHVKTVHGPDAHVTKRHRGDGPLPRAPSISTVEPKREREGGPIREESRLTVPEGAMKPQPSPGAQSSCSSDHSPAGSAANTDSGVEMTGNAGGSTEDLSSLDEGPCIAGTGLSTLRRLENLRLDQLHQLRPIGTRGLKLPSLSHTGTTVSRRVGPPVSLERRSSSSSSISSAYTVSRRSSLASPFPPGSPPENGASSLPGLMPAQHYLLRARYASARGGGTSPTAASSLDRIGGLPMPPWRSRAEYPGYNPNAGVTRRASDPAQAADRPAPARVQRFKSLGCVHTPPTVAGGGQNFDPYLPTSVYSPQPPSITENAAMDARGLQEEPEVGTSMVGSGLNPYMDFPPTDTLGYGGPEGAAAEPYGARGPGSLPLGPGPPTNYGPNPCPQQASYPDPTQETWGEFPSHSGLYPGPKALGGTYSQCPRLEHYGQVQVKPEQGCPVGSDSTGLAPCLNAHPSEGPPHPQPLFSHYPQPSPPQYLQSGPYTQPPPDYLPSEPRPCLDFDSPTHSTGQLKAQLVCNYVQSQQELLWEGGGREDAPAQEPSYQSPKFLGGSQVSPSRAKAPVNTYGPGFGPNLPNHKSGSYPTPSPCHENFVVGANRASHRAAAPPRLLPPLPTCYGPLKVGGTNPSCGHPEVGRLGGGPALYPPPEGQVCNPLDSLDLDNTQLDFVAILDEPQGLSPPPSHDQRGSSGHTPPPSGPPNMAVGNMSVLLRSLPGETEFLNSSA

[2] = tested on: lung adenocarcinoma cell lines; details: cited from earlier work
DNA = details: cited from earlier work
[3] = tested on: GLI1 and GLI2 transcription factors; details: cited from earlier work
Rh18 cells = assay: rt-PCR of GLI1 target gene Bcl-2 in GANT-61 treated Rh18 cells; format: cell-based
Method: as §1, §2

[4] = 5 μM GANT-61, day 10 embryoid bodies
[5] = 5 μM GANT-61, during the differentiation process

c1cc(-c2sc(-c3ccncc3)c(-c3ccncc3)c2-c2ccncc2)ccn1 [GANT-58]
oxytocin induced HIF-1alpha expression (HUVEC cells; HUVEC cells): abrogate
angiogenic capacity of HUVEC cells (HUVEC cells): reduction

CN(C)c1ccccc1CN1CCCN(Cc2ccccc2N(C)C)C1c1ccncc1 [GANT-61]
cell death [1]: extensive cell death
GLI1 expression (hESCs): no significant differences
PTCH1 expression (hESCs): no significant differences
SMO expression (hESCs): no significant differences
pluripotency marker expression (hESCs): no significant differences
Bcl-2 expression (Rh41 cells): significant down-regulation
mesodermal commitment of H1 hESCs in embryoid bodies (H1 hESCs): inhibited
GLI1 expression (H1 hESCs; 5 μM GANT-61, day 10): down-regulated
GLI2 expression (H1 hESCs; 5 μM GANT-61, day 10): down-regulated
PTCH1 expression (H1 hESCs; 5 μM GANT-61, day 10): down-regulated
Plakoglobin expression (H1 hESCs; 5 μM GANT-61, day 10): down-regulated
expression of pluripotency genes (H1 hESCs; 5 μM GANT-61, day 10): down-regulated
ectodermal gene expression / differentiation (H1 hESCs; [4]): decreased; also recorded: inhibited
endodermal gene expression / differentiation (H1 hESCs; [4]): significantly increased; also recorded: promoted
mesodermal gene expression / differentiation (H1 hESCs; [4]): significantly increased; also recorded: promoted
GLI1 expression (H1 hESCs; 5 μM GANT-61, day 20): continued to down-regulate
GLI2 expression (H1 hESCs; 5 μM GANT-61, day 20): continued to down-regulate
PTCH1 expression (H1 hESCs; 5 μM GANT-61, day 20): continued to down-regulate
endodermal marker expression (H1 hESCs; 5 μM GANT-61, day 20): significantly decreased; also recorded: significantly reduced
expression of pluripotency genes (H1 hESCs; 5 μM GANT-61, day 20): continued to down-regulate
mesodermal marker expression (H1 hESCs; 5 μM GANT-61, day 20): significantly decreased; also recorded: significantly reduced
GLI1 expression (H1 hESCs; [5]): significantly down-regulated
PTCH1 expression (H1 hESCs; [5]): significantly down-regulated
apoptosis (cancer cells): increases
proliferation (cancer cells): reduces
stem cell markers (cancer cells): reduces
binding to GLI1 (GLI1): binds
cancer initiating phenotype [2]: effective inhibiting
binding to DNA (DNA): does not bind
binding of GLI1 and GLI2 transcription factors to DNA [3]: inhibiting the binding
Bcl-2 expression (Rh18 cells): significant down-regulation

Source: patent publication US20250101430A1, “METHODS OF CANCER TREATMENT BY INHIBITION OF VASCULOGENESIS AND GLI1” (priority 2021, published 2025)
